One may read the IC50 as the concentration that inhibits the measured activity by half. As a reminder, the EC50 is the concentration needed to bring the measured effect to its halfway point. Lower therefore signals a more potent agent.

Some results are limits rather than exact numbers.

One experiment deals with A549 lung fibroblasts. The experiment in a line: Epithelial to mesenchymal transition gene expression in A549. Type of experiment: cell-based. The conditions noted are these: 5 ng/ml TGF-beta1, 48 h, up to 5 micromolar. As for the experimental part: To evaluate whether Compounds 01 and 04 could inhibit epithelial to mesenchymal transition (EMT), an in vitro model using A549 lung fibroblasts was utilized. A549 cells were purchased from ATCC (CCL-185), and grown in RPMI media supplemented with 10 percent fetal bovine serum (FBS). On the day of the experiment, ten thousand A549 cells were seeded in eighty microliters total volume into a flat, tissue culture coated, ninety-six-well plate. Drugs, including positive control compounds vactosertib, PF-06952229 and LY3200882, were added in an eight point, one to three dilution series with the highest concentration of each drug being five micromolar, bringing the total volume of each well to ninety microliters. DMSO, which served to dissolve the 10 millimolar stock solution of each drug, was normalized across all wells After one hour of drug pretreatment, recombinant human TGF-beta1 was added to a final concentration of five nanograms per milliliter, bringing the volume to one hundred microliters. Recombinant human TGF-beta 1 was purchased from R&D Systems (7754-BH-005) and its stock solution was prepared according to manufacturer's instructions and diluted in RPMI media supplemented with 10% FBS. The ninety-six well plate with one hundred microliter volume was incubated at 37° C. at 5% CO2 for forty-eight hours. At the end of the incubation period, gene expression levels of various EMT markers were assessed using a custom designed QuantiGene Plex Gene Expression Assay. The genes chosen were CDH1 (E-cadherin), CDH2 (N-Cadherin), SNAI1 (Snail), SNAI2 (Slug), VIM (Vimentin), SPARC, GALNT6, CTNNB1 (beta-catenin), TGFB1, and MAML3.
Briefly, cell lysate was prepared using the QuantiGene Sample Processing Kit —Cultured Cells (QS0100) in the ninety-six well plate. Cell lysates were then subjected to bead hybridization, multiple probe hybridization steps and SAPE labeling following manufacturer's instruction. The plate was read on a Luminex MAGPIX instrument.

The target in another experiment is T1, ALK5 (Homo sapiens, UniProt P36897).
T1 sequence (P36897 34-503): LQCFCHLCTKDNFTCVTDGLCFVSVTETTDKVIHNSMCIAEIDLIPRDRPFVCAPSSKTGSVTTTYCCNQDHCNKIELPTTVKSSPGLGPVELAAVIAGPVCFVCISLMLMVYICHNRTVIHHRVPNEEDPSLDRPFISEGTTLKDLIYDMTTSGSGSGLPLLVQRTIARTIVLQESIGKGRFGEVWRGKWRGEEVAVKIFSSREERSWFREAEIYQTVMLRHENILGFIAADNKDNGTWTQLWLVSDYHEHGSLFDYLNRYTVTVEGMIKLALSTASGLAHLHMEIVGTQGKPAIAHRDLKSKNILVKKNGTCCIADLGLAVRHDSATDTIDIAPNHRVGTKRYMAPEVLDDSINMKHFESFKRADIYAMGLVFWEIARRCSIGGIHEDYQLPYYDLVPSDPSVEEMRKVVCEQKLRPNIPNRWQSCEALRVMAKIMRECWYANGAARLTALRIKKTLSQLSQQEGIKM
The experiment in a line: LanthaScreen Eu Kinase Binding Assay, ALK5. As to conditions: 10-point titration, read-out: Kinase Inhibition: ALK5 IC50 (Lantha). The method, then: Selected compounds of the present disclosure were assayed for inhibitory activity against ALK5 and ALK2. Activity determinations and selectivity were conducted by Thermo Fisher Scientific SelectScreen™ Biochemical Kinase Profiling Service using their LanthaScreen™ Eu Kinase Binding Assay Screening.
Binding of an Alexa Fluor™ conjugate or “tracer” to a kinase is detected by addition of a Eu-labeled anti-tag antibody. Binding of the tracer and antibody to a kinase results in a high degree of FRET, whereas displacement of the tracer with a kinase inhibitor results in a loss of FRET. This assay is carried out by mixing the compound tested with the reagents and reading; no development step is required.
Life Technologies' Kinase Tracers are based on ATP-competitive kinase inhibitors, making them suitable for detection of any compounds that bind to the ATP site. Inhibitors that bind the ATP site include both Type I kinase inhibitors, which bind solely to the ATP site, and Type II inhibitors (e.g., Gleevec®/Imatinib, Sorafenib, BIRB-796), which bind to both the ATP site and a second site often referred to as the allosteric site.
The test compounds were screened in 1% DMSO (final) in the well. For 10-point titrations, 3-fold serial dilutions were conducted from the starting concentration (see Table 2 below).
All Kinase/Antibody Mixtures were diluted to a 2× working concentration in the specified kinase buffer. The 4× AlexaFluor labeled Tracer was prepared in Kinase Buffer.
• Bar-coded, low volume, white, 384-well plate (Greiner Cat. #784207) • 1. 160 nL—100× Test Compound in 100% DMSO • 2. 3.84 μL—Kinase Buffer • 3. 8.0 μL—2× Kinase/Antibody Mixture • 4. 4.0 μL—4× Tracer • 5. 30-second plate shake • 6. 60-minute incubation at room temperature • 7. Read on fluorescence plate reader and analysis of the data
The following controls were made for each individual kinase and were located on the same plate as the kinase:
100% Displacement Control: The minimum Emission Ratio was established by the 100% Displacement Control wells, which contained the highest concentration of the known inhibitor used in that assay.
Known Inhibitor: A known inhibitor control standard curve, 10-point titration, was run for each individual kinase on the same plate as the kinase to ensure the inhibitor was displaced within an expected IC50 range previously determined.
The following equations were used for each set of data points: […]
Data generated were plotted using the graphing software XLfit from IDBS. The dose response curve was curve fit to model number 205.
(In general: TR-FRET usually uses a lanthanide donor and a delayed reading to cut background.)

In experiment [1] the test system is TGF-β1-induced SMAD signaling pathway. Put plainly: RD SMAD reporter (RDSR) assay. The class given is cell-based. As to conditions: Homo sapiens; 200 pg/ml rhTGF-beta1, 24 h. The source says:
TGF-beta (also referred to as TGF-β1) is a multifunctional, highly conserved cytokine with many key functions in development, cell growth and apoptosis, and plays a key role in the tissue repair response and functions as a potent immune modulator. TGF-β signaling is triggered when the activated TGF-β homodimer binds to the TGF-β receptor 2, which in turn leads to the recruitment and phosphorylation of TGF-β receptor 1 (ALK5). Activated TGF-β receptor 1 phosphorylates the signal transduction molecules SMAD2 and SMAD3. These bind to common mediator SMAD4 and translocate to the nucleus where they bind to short conserved DNA sequences called the SMAD binding element and induce the transcription of various target genes.
A stable cellular reporter, the RD SMAD reporter (RDSR), was generated to test the ability of certain compounds disclosed herein to inhibit the canonical TGF-β1-induced SMAD signaling pathway in a cellular context. The RD SMAD reporter (RDSR) cell line was generated by stably integrating the SMAD cellular reporter plasmid (Promega, pGL4.48[luc2P/SBE/Hygro]) into the human rhabdomyosarcoma cell line RD (ATCC, CCL-136). Once SMAD signaling was triggered with, for example, the addition of TGF-beta1, receptor-activated SMADs bind the SMAD binding elements (SBEs) leading to the expression of intracellular luciferase.
The rhabdomyosarcoma line RD (ATCC, CCL-136) was transfected with a SMAD reporter vector (Promega, E3671) and a polyclonal stable cell line was selected using hygromycin B. The transfected vector contained three copies of a Smad-binding element (SBE) that drives transcription of the luciferase reporter gene luc2P (Photinus pyralis). luc2P is a synthetically-derived luciferase sequence with humanized codon optimization that is designed for high expression and reduced anomalous transcription. The luc2P gene contains hPEST, a protein destabilization sequence, which allows luc2P protein levels to respond more quickly than those of luc2 to induction of transcription. The intracellular luciferase is quantified by the addition of equal volume (100 μl) of ONE-GLO substrate (Promega, E6120) and read within ten minutes on the Envision plate reader. The stable RDSR cell line was tested by evaluating the response to human TGF-beta1 (R&D Systems, 7754-BH-005) as well as myostatin (R&D Systems, 788-G8-010/CF) in a concentration-dependent manner after twenty-four hours of stimulation. […] For compound evaluation, the tool compounds (vactosertib and PF-06952229 (a TGFβR1 inhibitor available from MedChem Express HY-136244) were included as positive controls) or test compounds were incubated with cells for one hour at 37° C. then stimulated with 200 pg/ml rhTGF-beta1 for twenty-four hours. The activity of the reporter was determined with the addition of ONE-GLO (Promega) substrate, and luminescence counts were collected on the Envision plate reader (Perkin Elmer). The IC50 or EC50 was calculated using nonlinear regression curve fitting with graph pad prism software.
A comparative RDSR analysis was performed using IC50 values for selected compounds and standards obtained using the RDSR assay protocol described in Example 3.
The tool compounds vactosertib (an ALK5 inhibitor sourced from MedChem Express, HY-19928) and PF-06952229 (a TGFβR1 inhibitor) were included in the study as comparator compounds. Selected example compounds or comparator compounds were incubated with cells for one hour at 37° C. then stimulated with 200 pg/ml rhTGF-beta1 for twenty-four hours. The activity of the reporter was determined by adding ONE-GLO (Promega) substrate, and collecting luminescence counts on the Envision plate reader (Perkin Elmer).
Each of the example compounds and comparator compounds were tested at drug concentrations of from 20 micromolar to 1 nanomolar, and the IC50 value for each was calculated using Graph Pad Prism software. DMSO was used as a negative control and all wells contained normalized DMSO concentrations. […]

In a further experiment the test system is JAK signaling. The experiment in a line: JAK selectivity assay, HEK blue IL-12 reporter. The conditions noted are these: HEK-Blue, 24 h, 12.5 ng/ml IL-12, 24 h. Type of experiment: cell-based. As for the experimental part: The cells were purchased from Invivogen (Catalog Nr: hkb-il12) and maintained according to vendor instructions. On the day of the experiment, cells were harvested by repeated tapping of the flask to shake loose the cells attached to the bottom of the flask. Then, cells were harvested, washed and resuspended in DMEM media supplemented with 10% fetal calf serum. 30 Microliters of cell suspension was seeded into a 384-well tissue culture-coated plate containing approximately 10,000 total cells. […] Using the ECHO “Dose Response” software, the test compound was added in duplicate wells with a 3-fold dilution curve. DMSO was back-filled to normalize the DMSO across all wells. […] After 30 minutes of incubation at room temperature, the optical density was measured at 620 nanometer using the Perkin Elmer Envision plate reader. A color change can be detected at this wavelength when secreted alkaline phosphatase, which is triggered by IL-12 signaling, is present in the supernatant. […]

For the molecule `CC(C)c1cnc(-c2cc(Cl)ccc2F)cc1Nc1ccncc1C(=O)NC(CO)CO` [PF-06952229, reference compound], in the experiment with A549 lung fibroblasts, the “CDH1 (E-Cadherin) gene expression” value is “inhibition of downregulation of CDH1 (E-Cadherin)” and the “expression of the nine genes induced with EMT (CDH2, SNAI1, SNAI2, VIM, SPARC, GALNT6, CTNNB1, TGFB1, MAML3)” value was “inhibition of induction of the nine genes that are induced with EMT”.

For `Cc1cccc2c(Nc3ccnc(Nc4cccc(N5CCOCC5)c4)c3)cnnc12` [Compound 03, N4-(8-methylcinnolin-4-yl)-N2-[3-(morpholin-4-yl)phenyl]pyridine-2,4-diamine], at ALK5, the 50% inhibitory concentration (IC50) was 2 to 5 nM. Also, the EC50 in experiment [1] was under 50 nM. `Cc1cnc(Nc2ccc(OCCN3CCCC3)cc2)nc1Nc1cccc(S(=O)(=O)NC(C)(C)C)c1` [Fedratinib, fedratinib]: the IC50 with JAK signaling was under 300 nM. Turning to `Cc1nn(CC(F)(F)F)cc1Nc1cc(Nc2cnnc3c(Cl)cccc23)ccn1` [Compound 02, N2-[3-methyl-1-(2,2,2-trifluoroethyl)-1H-pyrazol-4-yl]-N4-(8-chlorocinnolin-4-yl)pyridine-2,4-diamine], the IC50 at ALK5 is under 5 nM. For the same molecule, the EC50 in experiment [1] lay in the range of 50 to 100 nM. `CC(C)(O)c1cc(Nc2cc(Oc3cn(C4CC4)nc3C3CCOCC3)ccn2)ccn1` [LY3200882, reference compound]: in the experiment on A549 lung fibroblasts, the “CDH1 (E-Cadherin) gene expression” value is reported as “inhibition of downregulation of CDH1 (E-Cadherin)” and the “expression of the nine genes induced with EMT (CDH2, SNAI1, SNAI2, VIM, SPARC, GALNT6, CTNNB1, TGFB1, MAML3)” value is reported as “inhibition of induction of the nine genes that are induced with EMT”. Take `Cc1cccc2c(Nc3ccnc(Nc4ccc(N5CCN(C)CC5)cc4)c3)cnnc12` [Compound 06, N4-(8-methylcinnolin-4-yl)-N2-[4-(4-methylpiperazin-1-yl)phenyl]pyridine-2,4-diamine]: the IC50 on ALK5 is 2 to 5 nM. The same molecule showed an EC50 in experiment [1] of under 50 nM. In the case of `Cc1cccc2c(Nc3ccnc(Nc4cccc(C5CCOCC5)c4)c3)cnnc12` [Compound 07, N4-(8-methylcinnolin-4-yl)-N2-[3-(oxan-4-yl)phenyl]pyridine-2,4-diamine], the IC50 on ALK5 is 2 to 5 nM. In experiment [1], this molecule registered an EC50 of 50 to 100 nM. For `Cc1cccc2c(Nc3ccnc(Nc4ccc(C5CCOCC5)cc4)c3)cnnc12` [Compound 08, N4-(8-methylcinnolin-4-yl)-N2-[4-(oxan-4-yl)phenyl]pyridine-2,4-diamine] the same measures were 2 to 5 nM and under 50 nM.

The values above are taken from patent publication US20240197729A1, “ALK-5 Inhibitors and Uses Thereof” (Sumitomo Pharma Oncology, Inc., priority 2021, published 2024).
